# Columns and labels:
# ERα = ERα (Homo sapiens (Human), UniProt P03372); experiment: Degradation effect of compounds on ERα in MCF-7 and CAMA-1 cells (automated western blot, 24 h); assay type: cell-based; settings: ERα degradation in MCF-7 cells; for DC50: 24 hours; for Dmax at 0.1 µM: MCF7, @100 nM
# Description: 2. Degradation Effect of Compounds on ERα in MCF-7 and CAMA-1 Cells
# Breast cancer cells MCF-7 and CAMA-1 were purchased from ATCC, the cell media were all EMEM+10% FBS, and the cells were cultured in an incubator at 37° C. under 5% CO2. On the first day, the cells in an exponential phase were collected. With a 10% css-FBS phenol red-free medium, the cell suspension was adjusted to a corresponding concentration, plated at 300000 cells/well and incubated for 3 days. After 3 days, the liquid in the well was aspirated, and a 10% css-FBS phenol red-free medium containing the compound to be tested was added and cultured in an incubator at 37° C. under 5% CO2. After 24 hours, 60 μl of RIPA lysis solution (containing 1× protease inhibitor cocktail) was added to each well, lysed on ice for 15 minutes, and then centrifuged at 4° C. for 10 minutes at 12000 g. The supernatant protein samples were collected, and protein quantification was performed by a BCA method. ERα was detected using fully automatic protein expression quantitative analysis, which involved diluting the protein to be tested to 1.5 mg/mL. 4 μL of the diluted protein samples were added to 1 μL of 5×Master Mix (provided in the kit), and the prepared samples were denatured at 95° C. for 5 min and placed on ice for use. Antibody Diluent II (provided in the kit) was used to dilute the primary antibody, in which the dilution ratios of ERα (CST, 13258S) and β-actin (CST, 3700) antibodies were 1:40 and 1:500, respectively, the secondary antibody was a 1:1 mixture of goat anti-mouse and goat anti-rabbit secondary antibodies, and the chromogenic solution was a 1:1 mixture of Lumino-S and Peroxide. The prepared reagents were successively added to an assay plate according to instructions of the kit and detected on an instrument. Western blot band processing was performed using “Compass for SW”, a fully automatic protein expression quantitative analysis software, in which western blot bands were automatically simulated based on signal values. The proportion of ERα relative to the solvent control at different drug concentrations according to equation (1), wherein Acompound was the relative peak area of ERα in the treated group, and Asolvent was the relative peak area of ERα in the solvent control group.
# ERα%=Acompound/Asolvent×100 equation (1)
# DC50 calculation: Calculation was performed according to equation (1), and using Graphpad Prism 8.0 software, the compound concentration DC50 values at which the degradation rate of ERα was 50% were calculated using a non-linear four-parameter function (Non linear regression (curve fit)) (Table 1).
# MCF-7 cells = experiment: Inhibitory effect of compounds on the proliferation of MCF-7 cells (CellTiter-Glo, 7 days); assay type: cell-based; settings: Homo sapiens, MCF7, 168 h, 7 days incubation
# Description: 1. Inhibitory Effect of Compounds on the Proliferation of MCF-7 Cells
# Breast cancer cells MCF-7 were purchased from ATCC, the cell media were all EMEM+10% FBS, and the cells were cultured in an incubator at 37° C. under 5% CO2. On the first day, cells in the exponential growth phase were collected and cultured in a 10% css-FBS phenol red-free medium without cytokines for 3 days. After the completion of culture, a 10% css-FBS phenol red-free medium was used to adjust the cell suspension to the corresponding concentration and same was plated to 1000 cells/well. P-estradiol and compounds of different concentrations were added. A plate without adding any reagent was taken and used as Day0 with a reading value RLUday0, determined with CellTiter-Glo kit, placed in an incubator and incubated for 7 days. After the incubation was completed, according to operation instructions for a CellTiter-Glo kit (Promega, G7573), 50 μL of CellTiter-Glo solutions, which were pre-melted and equilibrated to room temperature, were added to each well, and the mixtures were uniformly mixed for 2 min using a microplate shaker. The plate was placed at room temperature for 10 min, and then […] signal values were measured using a microplate reader (PHERAstar FSX). Chemiluminescence readouts were processed using origin9.2 software and the DoseResp function was used to calculate the GIsovalue for the inhibitory activity of compounds on the proliferation of cells (Table 1). The results were processed according to equation (1), the inhibition rate of the compound at different concentrations was calculated, and the GI50 value of the compound with a proliferation rate of 50% was calculated using origin9.2 software, wherein RLUcompound was the readout of the treated group, and RLUcontrol was the average value of the solvent control group.
# Growth %=(RLUcompound−RLUday0)/(RLUcontrol−RLUday0)×100 equation (1)
# ER = settings: clinical samples; cited from earlier work
# Sequence of ERα (P03372 whole entry): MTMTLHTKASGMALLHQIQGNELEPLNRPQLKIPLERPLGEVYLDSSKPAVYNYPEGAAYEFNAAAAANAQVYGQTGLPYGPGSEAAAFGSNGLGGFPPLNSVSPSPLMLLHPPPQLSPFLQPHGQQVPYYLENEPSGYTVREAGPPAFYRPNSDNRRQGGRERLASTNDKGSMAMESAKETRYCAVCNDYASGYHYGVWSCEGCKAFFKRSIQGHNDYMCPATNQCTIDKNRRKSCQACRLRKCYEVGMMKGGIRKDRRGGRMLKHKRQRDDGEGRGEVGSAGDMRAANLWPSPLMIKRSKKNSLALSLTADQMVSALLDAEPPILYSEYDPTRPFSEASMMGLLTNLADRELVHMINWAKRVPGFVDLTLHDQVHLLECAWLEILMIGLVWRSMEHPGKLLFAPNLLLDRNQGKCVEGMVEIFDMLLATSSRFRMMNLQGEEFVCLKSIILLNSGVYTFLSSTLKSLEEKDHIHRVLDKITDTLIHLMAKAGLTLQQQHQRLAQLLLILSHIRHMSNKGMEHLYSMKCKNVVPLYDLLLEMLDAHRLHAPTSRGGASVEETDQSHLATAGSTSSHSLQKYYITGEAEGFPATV
SMILES,DC50 (ERα) [nM],Dmax at 0.1 µM (ERα) [%],GI50 (MCF-7 cells) [nM],ER degradation (ER)
"CC1Cc2c([nH]c3cc4c(cc23)CC4)C(c2c(F)cc(NC3CN(CCCF)C3)cc2F)N1CC(F)(F)F (single isomer, unassigned) [Compound 22-1, N-(3,5-difluoro-4-(3-methyl-2-(2,2,2-trifluoroethyl)-2,3,4,6,7,9-hexahydro-1H-cyclobuta[f]pyrido[3,4-b]indol-1-yl)phenyl)-1-(3-fluoropropyl)azetidin-3-amine]",1.13,69,,
"Cc1ccc2c3c([nH]c2c1)[C@@H](c1c(F)cc(N[C@H]2CCN(CCCF)C2)cc1F)N(CC(F)(F)CO)[C@H](C)C3 [Compound 8, 3-((1R,3R)-1-(2,6-difluoro-4-(((S)-1-(3-fluoropropyl)pyrrolidin-3-yl)amino)phenyl)-3,7-dimethyl-1,3,4,9-tetrahydro-2H-pyrido[3,4-b]indol-2-yl)-2,2-difluoropropan-1-ol]",0.594,70,,
"C[C@@H]1Cc2c([nH]c3cc(F)ccc23)[C@@H](c2c(F)cc(N[C@H]3CCN(CCCF)C3)cc2F)N1CC(F)(F)CO [Compound 31, 3-((1R,3R)-1-(2,6-difluoro-4-(((S)-1-(3-fluoropropyl)pyrrolidin-3-yl)amino)phenyl)-7-fluoro-3-methyl-1,3,4,9-tetrahydro-2H-pyrido[3,4-b]indol-2-yl)-2,2-difluoropropan-1-ol]",0.244,77,,
"Cc1ccc2[nH]c3c(c2c1)C[C@@H](C)N(CC(F)(F)CO)[C@@H]3c1c(F)cc(N[C@H]2CCN(CCCF)C2)cc1F [Compound 49, 3-((1R,3R)-1-(2,6-difluoro-4-(((S)-1-(3-fluoropropyl)pyrrolidin-3-yl)amino)phenyl)-3,6-dimethyl-1,3,4,9-tetrahydro-2H-pyrido[3,4-b]indol-2-yl)-2,2-difluoropropan-1-ol]",0.726,70,< 0.026,
C[C@]12CC[C@@H]3c4ccc(O)cc4C[C@@H](CCCCCCCCC[S+]([O-])CCCC(F)(F)C(F)(F)F)[C@H]3[C@@H]1CC[C@@H]2O (some centres unmarked) [Fulvestrant],,,,approximately 50%

# Further molecules by falling DC50 (ERα), results first:
DC50 (ERα) [nM],Dmax at 0.1 µM (ERα) [%],GI50 (MCF-7 cells) [nM],SMILES,ER degradation (ER)
1.7,72,< 0.026,"C[C@@H]1Cc2c([nH]c3ccc(F)cc23)[C@@H](c2c(F)cc(N[C@H]3CCN(CCCF)C3)cc2F)N1CC(F)(F)CF [Compound 38, (S)—N-(3,5-difluoro-4-((1R,3R)-6-fluoro-3-methyl-2-(2,2,3-trifluoropropyl)-2,3,4,9-tetrahydro-1H-pyrido[3,4-b]indol-1-yl)phenyl)-1-(3-fluoropropyl)pyrrolidin-3-amine]",
0.712,68,,"C#Cc1ccc2c3c([nH]c2c1)[C@@H](c1c(F)cc(NC2CN(CCCF)C2)cc1F)N(CC(F)(F)F)[C@H](C)C3 [Compound 51, N-(4-((1R,3R)-7-ethynyl-3-methyl-2-(2,2,2-trifluoroethyl)-2,3,4,9-tetrahydro-1H-pyrido[3,4-b]indol-1-yl)-3,5-difluorophenyl)-1-(3-fluoropropyl)azetidin-3-amine]",
0.447,72,,"C[C@@H]1Cc2c([nH]c3cccc(F)c23)[C@@H](c2c(F)cc(N[C@H]3CCN(CCCF)C3)cc2F)N1CC(F)(F)CO [Compound 15, 3-((1R,3R)-1-(2,6-difluoro-4-(((S)-1-(3-fluoropropyl)pyrrolidin-3-yl)amino)phenyl)-5-fluoro-3-methyl-1,3,4,9-tetrahydro-2H-pyrido[3,4-b]indol-2-yl)-2,2-difluoropropan-1-ol]",
0.269,68,< 0.026,"C[C@@H]1Cc2c([nH]c3cc(F)c(F)cc23)[C@@H](c2c(F)cc(N[C@H]3CCN(CCCF)C3)cc2F)N1CC(F)(F)CO [Compound 35, 3-((1R,3R)-1-(2,6-difluoro-4-(((S)-1-(3-fluoropropyl)pyrrolidin-3-yl)amino)phenyl)-6,7-difluoro-3-methyl-1,3,4,9-tetrahydro-2H-pyrido[3,4-b]indol-2-yl)-2,2-difluoropropan-1-ol]",

# Reference: patent US20240208932A1, “ARYLAMINO DERIVATIVE ESTROGEN RECEPTOR MODULATOR AND USE THEREOF” (XIZANG HAISCO PHARMACEUTICAL CO., LTD., priority 2021, published 2024)
